Measured values from patent US6432985B1, “Neuroprotective substituted piperidine compounds with activity as NMDA NR2B subtype selective antagonists” (Hoffmann-La Roche Inc., priority 2000, dated 2002).

Experiments:
[1] = target: T1, NMDA NR2B subunit containing receptors (Rattus norvegicus, UniProt P35439+Q00960); test: [3H]-Ro 25-6981 binding; conditions: rat brain membranes; 5 nM 3H-Ro 25-6981; indicates affinity for NMDA NR2B subunit containing receptors; read-out: Inhibition of [3H]-Ro 25-6981 binding IC50
T1 construct: Membranes were prepared by homogenization of the whole brain minus cerebellum and medulla oblongata; from tissue; host or cells: rat whole brain minus cerebellum and medulla oblongata, membrane preparation
Experimental: 3H-Ro 25-6981 Binding(Ro 25-6981 is [R-(R*,S*)]-α-(4-Hydroxy-phenyl)-β-methyl-4-(phenyl-methyl)-1-piperidine propanol)
(§1) Male Füllinsdorf albino rats weighing between 150-200 g were used. Membranes were prepared by homogenization of the whole brain minus cerebellum and medulla oblongata with a Polytron (10,000 rpm, 30 seconds), in 25 volumes of a cold Tris-HCl 50 mM, EDTA 10 mM, pH 7.1 buffer. The homogenate was centrifuged at 48.000 g for 10 minutes at 4° C. The pellet was resuspended using the Polytron in the same volume of buffer and the homogenate was incubated at 37° C. for 10 minutes. After centrifugation the pellet was homogenized in the same buffer and frozen at −80° C. for at least 16 hours but not more than 10 days. For the binding assay the homogenate was thawed at 37° C., centrifuged and the pellet was washed three times as above in a Tris-HCl 5 mM, pH 7.4 cold buffer. The final pellet was resuspended in the same buffer and used at a final concentration of 200 μg of protein/ml.
[3H]-Ro 25-6981 binding experiments were performed using a Tris-HCl 50 mM, pH 7.4 buffer. For displacement experiments 5 nM of 3H-Ro 25-6981 were used and non specific binding was measured using 10 μM of tetrahydroisoquinoline and usually it accounts for 10% of the total. The incubation time was 2 hours at 4° C. and the assay was stopped by filtration on Whatman GF/B glass fiber filters (Unifilter-96, Packard, Zürich, Switzerland). The filters were washed 5 times with cold buffer. The radioactivity on the filter was counted on a Packard Top-count microplate scintillation counter after addition of […] of microscint 40 (Canberra Packard S.A., Zürich, Switzerland).
The effects of compounds were measured using a minimum of 8 concentrations and repeated at least once. The pooled normalized values were analyzed using a non-linear regression calculation program which provide IC50 with their relative upper and lower 95% confidence limits (RS1, BBN, USA).

α1-adrenergic receptors = test: [3H]-Prazosin binding; conditions: rat brain membranes; 0.2 nM 3H-Prazosine; indicates affinity for α1-adrenergic receptors; read-out: Inhibition of [3H]-Prazosin binding IC50
Experimental: as §1, with “a Plytron” for “a Polytron”, “[…]” for “200 μg”
3H-Prazosin binding experiments were performed using a Tris-HCl 50 mM, pH 7.4 buffer. For displacement experiments 0.2 nM of 3H-Prazosine were used and non specific binding was measured using […] of Chlorpromazine. The incubation time was 30 minutes at room temperature and the assay was stopped by filtration on Whatman GF/B glass fiber filters (Unifilter-96, Canberra Packard S.A., Zürich, Switzerland). The filters were washed 5 times with cold buffer. The radioactivity on the filter was counted on a Packard Top-count microplate scintillation counter after addition of […] of microscint 40 (Canberra Packard S.A., Zürich, Switzerland). The effects of compounds were measured using a minimum of 8 concentrations and repeated at least once. The pooled normalized values were analyzed using a non-linear regression calculation program which provide IC50 with their relative upper and lower 95% confidence limits (RS1, BBN, USA).

hERG K+ channel = target: T2, hERG K+ channel (Homo sapiens, UniProt Q12809); test: Inhibition of the hERG K+ channel (whole-cell patch-clamp, CHO cells); type: cell-based; conditions: CHO cells stably transfected with hERG (pcDNA3-hERG), pH 7.3; average effect at 10 μM; recombinant human ERG channels in CHO cells; read-out: Inhibition of hERG K+ current, effect (%) at 10 μM
T2 construct: expressed in transfected cells
Excerpt: (§2) Methods for Studying the Inhibition of the hERG K^+ Channel
(§3) CHO cells were stably transfected by a pcDNA3-hERG expression vector containing a SV40-neo cassette for selection. Cells were thinly plated into 35 mm dishes and used for the electrophysiological experiment ½-3 d later.
(§4) During the experiment the cells were continuously superfused with an extracellular saline containing (in mM): NaCl 150, KCl 10, MgCl2 1, CaCl2 3, HEPES 10 (pH=7.3 by addition of NaOH). A 10-mM stock solution of the test compound was made from pure DMSO. Test solution were made by at least 1000-fold dilution of the stock solution into the extracellular saline. The glass micropipettes for whole-cell patch-clamp recording were filled with a containing (in mM): KCl 110, BAPTA 10, HEPES 10, MgCl2 4.5, Na2ATP 4, Na2-phosphocreatine 20, creatine kinase 200 μg/ml (pH=7.3 by addition of KOH).
(§5) The whole-cell configuration of the patch-clamp technique was used for the experiments. Cells were clamped to −80 mV holding potential and repetitively (0.1 Hz) stimulated by a voltage pulse pattern consisting of a 1-s conditioning depolarisation to 20 mV immediately followed by a hyperpolarisation of 50 ms duration to −120 mV. The membrane current was recorded for at least 3 min (18 stimuli) before compound application (control), and then for another two 3-min intervals in presence of two different concentrations of the compound. The current amplitudes (Itest) at the end of each compound application interval were divided by the mean current amplitude (Icontrol) during the initial control period to calculate the percentage effect of the compound:
(§6) effect (%)=(1-Itest/Icontrol)·100.
(§7) Compound concentrations were chosen in decade steps (usually 1 and 10 μM) around the expected 50% inhibitory concentration (IC50). If after the first experiment the IC50 turned out to lie outside the range between the two chosen concentrations the concentrations were changed to bracket the IC50 in the following experiments. The compound was tested on at least three cells. Its IC50 was then estimated from the population of all percent-effect values by non-linear regression using the function […]). Concentrations higher than 10 μM were not tested.

[2] = target: T3, recombinant human ERG potassium channels (Homo sapiens, UniProt Q12809); test: as above; type: cell-based; conditions: recombinant human ERG channels expressed in CHO cells; concentrations higher than 10 μM not tested; read-out: Inhibition of hERG K+ current IC50
T3 construct: expressed in transfected cells
Excerpt: as §2, §3, §4, §5, §6, §7

T2 sequence (Q12809 whole entry): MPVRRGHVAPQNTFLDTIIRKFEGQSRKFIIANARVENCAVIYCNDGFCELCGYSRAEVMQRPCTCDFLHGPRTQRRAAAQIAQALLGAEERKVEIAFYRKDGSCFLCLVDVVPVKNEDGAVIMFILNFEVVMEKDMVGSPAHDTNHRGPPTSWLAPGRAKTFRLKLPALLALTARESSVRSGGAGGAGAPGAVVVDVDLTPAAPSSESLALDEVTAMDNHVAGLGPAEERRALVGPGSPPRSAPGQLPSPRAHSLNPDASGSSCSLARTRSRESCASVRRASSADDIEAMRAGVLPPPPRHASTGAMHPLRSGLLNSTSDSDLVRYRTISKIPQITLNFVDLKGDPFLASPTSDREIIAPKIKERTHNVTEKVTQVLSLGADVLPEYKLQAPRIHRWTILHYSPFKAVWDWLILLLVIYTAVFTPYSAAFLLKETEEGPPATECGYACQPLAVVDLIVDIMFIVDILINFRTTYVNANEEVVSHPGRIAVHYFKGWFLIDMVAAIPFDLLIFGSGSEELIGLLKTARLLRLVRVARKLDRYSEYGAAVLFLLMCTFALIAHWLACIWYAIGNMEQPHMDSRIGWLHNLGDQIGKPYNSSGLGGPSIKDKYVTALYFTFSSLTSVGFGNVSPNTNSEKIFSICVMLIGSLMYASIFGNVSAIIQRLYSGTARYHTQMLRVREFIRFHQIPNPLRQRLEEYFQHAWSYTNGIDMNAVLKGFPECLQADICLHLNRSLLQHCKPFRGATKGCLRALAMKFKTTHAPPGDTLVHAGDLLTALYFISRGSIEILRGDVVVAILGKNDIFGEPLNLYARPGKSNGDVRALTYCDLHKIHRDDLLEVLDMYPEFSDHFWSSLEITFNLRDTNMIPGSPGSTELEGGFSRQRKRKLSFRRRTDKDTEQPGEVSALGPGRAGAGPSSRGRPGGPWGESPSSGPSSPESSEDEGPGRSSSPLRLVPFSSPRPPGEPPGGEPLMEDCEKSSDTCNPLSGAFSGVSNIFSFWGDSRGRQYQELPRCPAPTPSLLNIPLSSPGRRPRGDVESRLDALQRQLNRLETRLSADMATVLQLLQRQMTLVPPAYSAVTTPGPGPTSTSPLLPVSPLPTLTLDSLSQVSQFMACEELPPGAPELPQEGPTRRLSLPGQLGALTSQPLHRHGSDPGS
T3 sequence (Q12809 whole entry): as above
T1 sequence (Q00960 27-1482, other chains not shown): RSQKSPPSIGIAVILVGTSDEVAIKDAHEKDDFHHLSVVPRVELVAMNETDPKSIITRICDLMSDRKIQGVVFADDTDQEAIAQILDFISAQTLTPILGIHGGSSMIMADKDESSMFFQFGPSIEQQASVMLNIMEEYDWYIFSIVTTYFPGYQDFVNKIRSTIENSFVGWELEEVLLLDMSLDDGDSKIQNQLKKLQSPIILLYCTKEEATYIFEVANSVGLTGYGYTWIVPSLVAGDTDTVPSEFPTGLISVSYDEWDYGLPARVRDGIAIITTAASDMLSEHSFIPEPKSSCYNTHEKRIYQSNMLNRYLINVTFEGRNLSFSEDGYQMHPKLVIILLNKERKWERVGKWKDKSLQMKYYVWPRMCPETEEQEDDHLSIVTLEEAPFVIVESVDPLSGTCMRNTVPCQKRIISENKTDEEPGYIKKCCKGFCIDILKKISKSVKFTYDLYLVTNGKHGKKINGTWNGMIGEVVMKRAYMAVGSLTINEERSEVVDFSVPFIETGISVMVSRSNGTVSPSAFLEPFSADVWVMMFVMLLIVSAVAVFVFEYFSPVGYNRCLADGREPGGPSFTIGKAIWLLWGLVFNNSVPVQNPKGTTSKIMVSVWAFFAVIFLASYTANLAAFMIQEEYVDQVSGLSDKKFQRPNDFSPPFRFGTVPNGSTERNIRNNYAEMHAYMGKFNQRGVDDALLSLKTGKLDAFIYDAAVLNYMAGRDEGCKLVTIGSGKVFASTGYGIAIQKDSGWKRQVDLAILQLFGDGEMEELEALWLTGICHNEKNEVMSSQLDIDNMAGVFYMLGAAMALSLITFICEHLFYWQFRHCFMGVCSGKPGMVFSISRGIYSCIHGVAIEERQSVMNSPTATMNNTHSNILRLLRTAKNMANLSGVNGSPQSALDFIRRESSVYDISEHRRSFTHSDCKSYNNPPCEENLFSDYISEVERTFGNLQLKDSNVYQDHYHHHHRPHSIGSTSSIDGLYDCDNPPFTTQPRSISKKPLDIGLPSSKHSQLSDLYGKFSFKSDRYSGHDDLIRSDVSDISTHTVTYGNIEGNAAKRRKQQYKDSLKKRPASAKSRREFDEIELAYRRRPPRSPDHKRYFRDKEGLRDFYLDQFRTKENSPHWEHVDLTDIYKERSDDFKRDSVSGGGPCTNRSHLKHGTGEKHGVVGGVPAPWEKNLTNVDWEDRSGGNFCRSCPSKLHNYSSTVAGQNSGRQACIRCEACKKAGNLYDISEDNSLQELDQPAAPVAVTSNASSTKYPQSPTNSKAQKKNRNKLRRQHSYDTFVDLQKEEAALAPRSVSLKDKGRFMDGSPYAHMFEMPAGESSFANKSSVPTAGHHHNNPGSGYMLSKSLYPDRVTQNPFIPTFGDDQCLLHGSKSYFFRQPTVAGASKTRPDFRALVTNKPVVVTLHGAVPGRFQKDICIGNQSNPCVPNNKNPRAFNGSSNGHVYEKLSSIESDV

Row | SMILES | IC50 [1] | IC50 (α1-adrenergic receptors) | inhibition at 3 min, 10 µM (hERG K+ channel) | IC50 [2]
1 | Oc1ccc(OCCN2CC[C@](O)(Cc3ccccc3)[C@H](O)C2)cc1 (racemic) [I (racemate), (3R,4R) and (3S,4S)-4-benzyl-1-[2-(4-hydroxy-phenoxy)-ethyl]-piperidine-3,4-diol] | 0.045 µM | 27 µM | 45% | > 10 µM
2 | Cc1ccc(CC2(O)CCN(CCOc3ccc(O)cc3)CC2)cc1 [EP 824098, 1-[2-(4-hydroxy-phenoxy)-ethyl]-4-(4-methyl-benzyl)-piperidin-4-ol, reference compound] | 0.01 µM | 3.5 µM | – | 0.69 µM
3 | Oc1ccc(OCCN2CC[C@@](O)(Cc3ccccc3)[C@@H](O)C2)cc1 [I-2 (S,S), (3S,4S)-4-benzyl-1-[2-(4-hydroxy-phenoxy)-ethyl]-piperidine-3,4-diol] | 0.039 µM | 30 µM | 40% | > 10 µM
4 | Oc1ccc(OCCN2CC[C@](O)(Cc3ccccc3)[C@H](O)C2)cc1 [I-1 (R,R), (3R,4R)-4-benzyl-1-[2-(4-hydroxy-phenoxy)-ethyl]-piperidine-3,4-diol] | 0.038 µM | 25 µM | 44% | > 10 µM
